# Values of other authors, collected in patent US8288342B2, “Methods for treating vasomotor symptoms in castrated prostatic cancer patients with low dose cyproterone acetate” (priority 2008, dated 2012).
# Tested on: hot flashes
# Conditions: 37 subjects with bothersome hot flashes; cited from earlier work
smiles,measurement,value
"CC(=O)O[C@]1(C(C)=O)CC[C@H]2[C@@H]3C=C(C)C4=CC(=O)CC[C@]4(C)[C@H]3CC[C@@]21C [MA, megestrol acetate]",Therapeutic efficacy: reduction in hot flashes,70%
